{
  "source": "patent US20180133221A1",
  "about": "“ADMINISTRATION OF UBIQUITIN-ACTIVATING ENZYME INHIBITOR AND CHEMOTHERAPEUTIC AGENTS” (Millennium Pharmaceuticals, Inc., priority 2014, published 2018)",
  "origin": "cited, not measured here",
  "key": {"[1]": {"tested_on": "mouse acute myeloid leukemia (AML model)", "details": "mouse AML model (Xu et al., 2010); cited from earlier work"}, "[2]": {"tested_on": "leukemia and myeloma cell lines", "details": "leukemia and myeloma cell lines (Xu et al., 2010); cited from earlier work"}},
  "data": [
    {"smiles": "O=C1NN(c2ccc(F)c(Cl)c2)C(=O)/C1=C\\c1ccc([N+](=O)[O-])o1", "note": "[PYZD-4409]", "values": [
      {"measurement": "anti-tumor activity", "setting": "[1]", "result": "demonstrated anti-tumor activity"},
      {"measurement": "cell death", "setting": "[2]", "result": "induced cell death"}
    ]}
  ]
}
